Experimental data reported in article PMC10274775 (bioRxiv, 2023).

What was measured:
[1] = molecular target: T1, uniporter with MICU1-MICU1 homodimer (MICU2-KO HEK cells) (Homo sapiens, UniProt Q8NE86+Q9BPX6); test: Fluo-4 extramitochondrial Ca2+ in digitonin-permeabilized MICU2-KO HEK cells; format: biochemical
T1 sequence (Q8NE86 51-351): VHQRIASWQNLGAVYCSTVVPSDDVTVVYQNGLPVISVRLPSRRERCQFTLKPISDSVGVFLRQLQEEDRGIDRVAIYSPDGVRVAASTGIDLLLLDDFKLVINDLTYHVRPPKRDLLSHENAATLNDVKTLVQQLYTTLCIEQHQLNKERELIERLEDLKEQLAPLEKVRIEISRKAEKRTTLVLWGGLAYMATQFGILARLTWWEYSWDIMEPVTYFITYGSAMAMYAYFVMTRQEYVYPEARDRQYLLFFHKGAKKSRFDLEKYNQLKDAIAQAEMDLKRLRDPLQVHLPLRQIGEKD
T1 sequence (Q9BPX6 34-476): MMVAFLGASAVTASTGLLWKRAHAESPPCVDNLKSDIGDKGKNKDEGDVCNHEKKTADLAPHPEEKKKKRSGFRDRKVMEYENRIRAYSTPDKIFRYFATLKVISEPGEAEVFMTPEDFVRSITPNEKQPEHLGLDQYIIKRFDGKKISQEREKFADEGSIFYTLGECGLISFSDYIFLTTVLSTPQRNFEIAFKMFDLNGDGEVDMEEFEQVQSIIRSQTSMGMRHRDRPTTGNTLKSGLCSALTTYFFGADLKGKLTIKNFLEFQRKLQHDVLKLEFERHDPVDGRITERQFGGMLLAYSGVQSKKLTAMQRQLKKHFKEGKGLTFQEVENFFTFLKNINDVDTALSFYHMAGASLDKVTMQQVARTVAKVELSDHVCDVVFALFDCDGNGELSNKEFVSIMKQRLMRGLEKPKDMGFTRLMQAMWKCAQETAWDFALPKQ
T1 sequence (Q9H4I9 53-107 partner): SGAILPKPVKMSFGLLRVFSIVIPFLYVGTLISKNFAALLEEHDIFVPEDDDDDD

[2] = molecular target: T2, MCU-MICU1 complex (MICU1-1 dimer) (Homo sapiens, UniProt Q8NE86+Q9BPX6); test: co-immunoprecipitation from HEK lysate, western blot; format: biochemical; conditions: 1 mM spermine, 1 mM EGTA; disruption of the MCU-MICU1 interaction; pH 7.4, 4 mM DDM
T2 sequence (Q8NE86 51-351): T1 sequence (Q8NE86 51-351)
T2 sequence (Q9BPX6 34-476): T1 sequence (Q9BPX6 34-476)

EC50 [1]: 158 µM
SMILES: NCCCNCCCCNCCCN [spermine]
co-immunoprecipitation from HEK lysate, western blot [2]: spermine fully breaks complex formation between MCU and the MICU1-1 dimer
